Reference: ChEMBL document CHEMBL1201862, “PubChem BioAssay data set” (2004)
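Interpolation was linear, between the two tested concentrations surrounding the appropriate level; five concentrations were tested over 48 hours in 96-well plates. Here, GI50 denotes the concentration required for 50% inhibition of growth.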 Activity calls are given as the source filed them. No stated cut-off is given here; in the data, active = GI50 up to about 1.1 µM and inactive = higher.

Experiments:
Assay in all cases: NCI-60 cell line screen, 48 h
[1] = system: OVCAR-8
[2] = system: BT-549
[3] = system: IGROV-1
[4] = system: COLO 205
[5] = system: Malme-3M
[6] = system: OVCAR-3
[7] = system: CAKI-1
[8] = system: NCI-H226
[9] = system: OVCAR-4
[10] = system: M14
[11] = system: HOP-62
[12] = system: KM-20L2
[13] = system: ACHN
[14] = system: DMS-273
[15] = system: MOLT-4
[16] = system: SF-295
[17] = system: M19-MEL
[18] = system: NCI-H460
[19] = system: RPMI-8226
[20] = system: HCT-116
[21] = system: SF-268
[22] = system: TK-10
[23] = system: U-251
[24] = system: NCI-H522
[25] = system: SF-539
[26] = system: SN12C
[27] = system: CCRF-CEM
[28] = system: EKVX
[29] = system: SW-620
[30] = system: XF498
[31] = system: PC-3
[32] = system: SK-MEL-28
[33] = system: UACC-257
[34] = system: LXFL 529
[35] = system: DU-145
[36] = system: DLD-1
[37] = system: SNB-75
[38] = system: NCI-H23
[39] = system: UO-31
[40] = system: MDA-MB-231
[41] = system: T47D
[42] = system: DMS-114
[43] = system: RXF 393
[44] = system: NCI/ADR-RES
[45] = system: KM12
[46] = system: LOX IMVI
[47] = system: HCC 2998
[48] = system: A498
[49] = system: HL-60
[50] = system: MDA-MB-435
[51] = system: HCT-15
[52] = system: RXF 631
[53] = system: SNB-19
[54] = system: 786-0
[55] = system: SK-OV-3
[56] = system: SK-MEL-2
[57] = system: HT-29
[58] = system: UACC-62
[59] = system: OVCAR-5
[60] = system: K562
[61] = system: HOP-18
[62] = system: A549
[63] = system: SNB-78
[64] = system: Hs-578T
[65] = system: MDA-N
[66] = system: SK-MEL-5
[67] = system: SR
[68] = system: HOP-92
[69] = system: MCF7

## C[N+](C)(C)CC1CCCC1=O (stereo unspecified)
[1]
  GI50: 2.1 µM (inactive)
[2]
  GI50: 1 µM (active)
[3]
  GI50: 16 µM (inactive)
[4]
  GI50: 1.2 µM (inactive)
[5]
  GI50: 0.789 µM (active)
[6]
  GI50: 2.36 µM (inactive)
[7]
  GI50: 2.48 µM (inactive)
[8]
  GI50: 17.2 µM (inactive)
[9]
  GI50: 0.867 µM (active)
[10]
  GI50: 0.929 µM (active)
[11]
  GI50: 29.8 µM (inactive)
[12]
  GI50: 2.61 µM (inactive)
[13]
  GI50: 1.09 µM (active)
[14]
  GI50: 6.87 µM (inactive)
[15]
  GI50: 0.249 µM (active)
[16]
  GI50: 19.1 µM (inactive)
[17]
  GI50: 2.22 µM (inactive)
[18]
  GI50: 19.5 µM (inactive)
[19]
  GI50: 0.306 µM (active)
[20]
  GI50: 1.25 µM (inactive)
[21]
  GI50: 9.64 µM (inactive)
[22]
  GI50: 2.62 µM (inactive)
[23]
  GI50: 13.2 µM (inactive)
[24]
  GI50: < 0.0105 µM (active)
[25]
  GI50: 2.98 µM (inactive)
[26]
  GI50: 2.64 µM (inactive)
[27]
  GI50: 0.213 µM (active)
[28]
  GI50: 2.16 µM (inactive)
[29]
  GI50: 0.383 µM (active)
[30]
  GI50: 1.87 µM (inactive)
[31]
  GI50: 1.41 µM (inactive)
[32]
  GI50: 1.89 µM (inactive)
[33]
  GI50: 5.53 µM (inactive)
[34]
  GI50: 1.26 µM (inactive)
[35]
  GI50: 0.0296 µM (active)
[36]
  GI50: 1.01 µM (active)
[37]
  GI50: 3.1 µM (inactive)
[38]
  GI50: 4.45 µM (inactive)
[39]
  GI50: 2.5 µM (inactive)
[40]
  GI50: 1.39 µM (inactive)
[41]
  GI50: 0.192 µM (active)
[42]
  GI50: 3.24 µM (inactive)
[43]
  GI50: 2.27 µM (inactive)
[44]
  GI50: 1.94 µM (inactive)
[45]
  GI50: 6.59 µM (inactive)
[46]
  GI50: 0.832 µM (active)
[47]
  GI50: 16 µM (inactive)
[48]
  GI50: 13.1 µM (inactive)
[49]
  GI50: 0.406 µM (active)
[50]
  GI50: 1.71 µM (inactive)
[51]
  GI50: 2.18 µM
[52]
  GI50: 14.2 µM (inactive)
[53]
  GI50: 20.2 µM (inactive)
[54]
  GI50: 2.34 µM (inactive)
[55]
  GI50: 16.5 µM (inactive)
[56]
  GI50: 5.61 µM (inactive)
[57]
  GI50: 1.23 µM (inactive)
[58]
  GI50: 1.6 µM (inactive)
[59]
  GI50: 8.22 µM (inactive)
[60]
  GI50: 0.377 µM (active)
[61]
  GI50: 1.87 µM (inactive)
[62]
  GI50: 19 µM (inactive)
[63]
  GI50: 3.24 µM (inactive)
[64]
  GI50: 3.43 µM (inactive)
[65]
  GI50: 1.69 µM (inactive)
[66]
  GI50: 5.68 µM (inactive)
[67]
  GI50: 0.339 µM (active)
[68]
  GI50: 1.07 µM (active)

## O=C1/C(=C/c2ccccc2)CN(C(=O)/C=C/c2ccccc2)C/C1=C\c1ccccc1
[1]
  GI50: 4.88 µM (inactive)
[2]
  GI50: 2.26 µM (inactive)
[3]
  GI50: 6.95 µM (inactive)
[4]
  GI50: 4.92 µM (inactive)
[5]
  GI50: 16.1 µM (inactive)
[6]
  GI50: 7.13 µM (inactive)
[7]
  GI50: 23.7 µM (inactive)
[8]
  GI50: 18.8 µM (inactive)
[9]
  GI50: 6.85 µM (inactive)
[10]
  GI50: 3.63 µM (inactive)
[11]
  GI50: 23.7 µM (inactive)
[12]
  GI50: 12.8 µM (inactive)
[13]
  GI50: 14.2 µM (inactive)
[14]
  GI50: 4.74 µM (inactive)
[15]
  GI50: 3.53 µM (inactive)
[69]
  GI50: 1.75 µM (inactive)
[16]
  GI50: 4.79 µM (inactive)
[17]
  GI50: 5.22 µM (inactive)
[18]
  GI50: 11.5 µM (inactive)
[19]
  GI50: 1.07 µM (active)
[20]
  GI50: 0.764 µM (active)
[21]
  GI50: 11.2 µM (inactive)
[22]
  GI50: 16.1 µM (inactive)
[23]
  GI50: 3.59 µM (inactive)
[24]
  GI50: 8.99 µM (inactive)
[25]
  GI50: 9.75 µM (inactive)
[26]
  GI50: 5.43 µM (inactive)
[27]
  GI50: 2.85 µM (inactive)
[28]
  GI50: 24.5 µM (inactive)
[29]
  GI50: 2.39 µM (inactive)
[30]
  GI50: 18.6 µM (inactive)
[31]
  GI50: 2.03 µM (inactive)
[32]
  GI50: 7.62 µM (inactive)
[33]
  GI50: 12.7 µM (inactive)
[34]
  GI50: 8.05 µM (inactive)
[35]
  GI50: 18.6 µM (inactive)
[36]
  GI50: 4.14 µM (inactive)
[37]
  GI50: 13.5 µM (inactive)
[38]
  GI50: 12.4 µM (inactive)
[39]
  GI50: 12.4 µM (inactive)
[40]
  GI50: 3.18 µM (inactive)
[41]
  GI50: 4.43 µM (inactive)
[43]
  GI50: 15.6 µM (inactive)
[44]
  GI50: 1.86 µM (inactive)
[45]
  GI50: 4.17 µM (inactive)
[46]
  GI50: 2.55 µM (inactive)
[47]
  GI50: 3.55 µM (inactive)
[48]
  GI50: 33.3 µM (inactive)
[49]
  GI50: 4.44 µM (inactive)
[50]
  GI50: 1.93 µM (inactive)
[51]
  GI50: 6.17 µM
[52]
  GI50: 27.1 µM (inactive)
[53]
  GI50: 8.15 µM (inactive)
[54]
  GI50: 4.09 µM (inactive)
[55]
  GI50: 27.7 µM (inactive)
[56]
  GI50: 21.4 µM (inactive)
[57]
  GI50: 3.07 µM (inactive)
[58]
  GI50: 5.69 µM (inactive)
[59]
  GI50: 17.6 µM (inactive)
[60]
  GI50: 2.98 µM (inactive)
[61]
  GI50: 33.7 µM (inactive)
[62]
  GI50: 11.1 µM (inactive)
[63]
  GI50: 22 µM (inactive)
[64]
  GI50: 4.27 µM (inactive)
[65]
  GI50: 1.87 µM (inactive)
[66]
  GI50: 8.38 µM (inactive)
[67]
  GI50: 1.3 µM (inactive)
[68]
  GI50: 25.9 µM (inactive)
